# Measurements as given in patent US20130289023A1, “METHOD FOR TREATING BRAIN TUMOR” (priority 2012, published 2013).
# Like-named read-outs stand apart in the source and are kept apart here.
# Assays:
# [1] = test system: U87MG sphere cells (cancer stem-like cells)
# [2] = test system: U87MG cells; assay: U87MG subcutaneous tumor in NOD/SCID mice; type: in vivo; settings: 5 days/week
# Experimental: Female NOD/SCID, 4-6 weeks of age were purchased from the National Laboratory Animal Center (NLAC) (Taipei, Taiwan). All protocols were approved by the institutional animal care committee of Taipei Medical University Hospital Mice were inoculated with U87MG cells in the right flank of NOD/SCID mice (1×10^6 cells/100 μL PBS, subcutaneous infection) and divided into control (sham) and thioridazine-treatment groups (5 mg/kg/day, 5 days/week). N=5 in each group. Tumor burden was measured on a weekly basis using a caliper and calculated using the following formula (a×b^2)/2, where a and b represents the long and short axis of the tumor respectively.
# By the end of 6 weeks, animals were humanely sacrificed and tumor biopsies were collected.
# [3] = test system: U87MG cells; assay: Western blot analysis in U87MG; type: cell-based; settings: 24 hr
# Experimental: (§1) The cells were lysed in a lysis buffer (50 mM Tris-HCl, pH 7.4, 5 mM MgCl2, 1% Nonidet P-40, 150 mMNaCl, 1 mM phenylmethylsulfonyl fluoride). Total protein was isolated and subjected to SDS polyacrylamide gel electrophoresis and electrotransfered onto PVDF membranes (Millipore). Primary antibodies, including p-mTOR (Ser 2448), mTOR, PI3K (P110α), p-Akt (Ser 473), Akt, p-S6K (Ser 424), S6K, p-AMPK (Thrl72), AMPK, and CASP3, were obtained from Cell Signaling and LC3 was from Abgent, and secondary antibodies for anti-mouse and anti-rabbit horseradish preoxidase (HRP)-conjugation were from Chemicon International. The protein detection was performed with enhanced chemiluminescence (ECL™) method captured by a Luminescence Imaging System (LAS-4000™, Fuji Photo Film Co., Ltd),
# (§2) We observed several protein expression changes, primarily involved in autophagic and cell growth related pathway, it was shown that GBM cells are more sensitive to agents that induce autophagy than apoptosis. Thus, we examined the PI3K-Akt-mTORcascade with known roles m regulation of autophagy.
# (§3) Pathway analysis of differentially expressed gene signatures obtained from microarray profiling was investigated via Consensus PathDB. Several thioridazine-mediated pathways were highlighted, including pathway in cancer, GPCR signaling, senescence and autophagy, DMA damage response, and G1 to S cell cycle control (FIGS. 4(A) and 4(B)). Because G-protein couple receptors (GPCR) are membrane associated proteins and have been widely recognized as drug targets. Therefore, we tested whether GPCR might be the target of thioridazine.
# [4] = test system: GBM8401 cells; assay: Western blot analysis in GBM8401; type: cell-based; settings: 24 hr
# Experimental: as §1, §2, §3
# [5] = test system: primary GBM spheroids; assay: Tumor spheroid assay; type: cell-based
# Experimental: For the formation of tumor spheroids, cells were cultured in HEScGRO serum-free medium (human) (Chemicon) supplemented with 20 ng/mL Hegf, 10 ng/mL hFGF-b and NeuroCult MS-A proliferation supplements. Cells were seeded at low densities (1000 cells/mL) in 12-well low adhesion plates at 1 mL, per well Spheroids (tight, spherical, non-adherent masses >90 um in diameter) were counted, and at least 50 spheroids per group were measured with an ocular micrometer. For secondary spheroid-forming assays, primary spheroids were dissociated mechanically and processed as in the primary assay. For the quantification of the percentage of spheroid-forming cells, cells were seeded at one cell per well in 96-well plates, […]
# [6] = test system: GBM8401 cells; assay: MTT cell viability assay in GBM8401; settings: for cell death: GBM8401, 1 to 10 μM, 72 hr, FIG. 1(B)
# Experimental: To examine the cytotoxicity of anti-psychotic drugs on malignant glioma, GBM8401 cells were treated with 21 anti-psychotic drugs at 10 μM, respectively, for 72 hr.
# [7] = test system: U87MG cells; assay: Cell viability / cell death in U87MG; type: cell-based; settings: 1 to 10 μM, 72 hr, FIG. 1(B)
# [8] = test system: U87MG cells; assay: Side population assay (flow cytometry) in U87MG; type: cell-based; settings: 10 μM, decreased from 1.43%
# Experimental: (§4) The cells were detached from the dishes with trypsin-EDTA (Invitrogen), and suspended in a single-cell suspension at 1×10^6 cells/mL in Hank's balanced salt solution (HBSS) supplemented with 3% fetal calf serum and 10 mM Hepes. The cells were then incubated at 37° C. for 90 min with 20 μg/mL Hoechst 33342 (Sigma Chemical, St. Louis, Mo.), either alone or in the presence of 50 μmol/L verapamil (Sigma), an inhibitor of the verapamil-sensitive ABC transporter. After incubation, the cells were centrifuged immediately for 5 min at 300 g and 4° C. and resuspended in ice-cold HBSS, The cells were kept on ice to inhibit efflux of the Hoechst dye, and 1 μg/mL propidium Iodide (BD) was added to discriminate dead cells. Finally, these cells were filtered through a 40 μm cell strainer (BD) to obtain a single-cell suspension. Dual-wavelength analysis and purification were performed on a dual-laser PACS. Vantage SE machine (BD). Hoechst 33342 was excited with a 355 nm UV light and emitted blue fluorescence with a 450/20 band-pass (BP) filter and red fluorescence with a 675 nm edge filter long-pass (EFLP). A 610 nm dichroic mirror short-pass (DMSP) was used to separate the emission wavelengths. Pi-positive (dead) cells were excluded from the analysis.
# [9] = test system: GBM cells; assay: Autophagy and ER stress markers in GBM cells (western blot); type: cell-based; settings: for autophagy in GBM cells: GBM8401 and U87MG cells, western blot markers
# Experimental: as §1, §2
# [10] = test system: GBM8401 cells; assay: Side population assay (flow cytometry) in GBM8401; type: cell-based; settings: 10 μM, decreased from 1.26%
# Experimental: as §4
# [11] = U87MG sphere cells, 10 and 20 μM, 24 hr
substance,measurement,setting,value
trifluoperazine,cell viability,[1]; [11],significantly reduced
thioridazine,tumor samples (biopsies) compared to control mice,"[2]; 5 mg/kg/day, end of 6 weeks",significantly smaller in size and less vascularized
same,tumor burden compared to vehicle control,"[2]; i.p. injection 5 mg/kg/day, NOD-SCID mice with U87MG cells",significantly smaller
same,"EDNRA, GPR17, GPRC5B (GPCR) expression",[3]; 10 μM,down-regulated
same,LC3-II and phospho-AMPK (THr172),[3]; 5 to 15 μM,up-regulated
same,"PI3K, phospho-Akt(Ser 473), phospho-mTOR(Ser 2448), phospho-S6K (Ser 424)",[3]; 5 to 15 μM,down-regulated
same,"EDNRA, GPR17, GPRC5B (GPCR) expression","[4]; GBM8401, 10 μM",down-regulated
same,LC3-II and phospho-AMPK (THr172),"[4]; GBM8401, 5 to 15 μM",up-regulated
same,"PI3K, phospho-Akt(Ser 473), phospho-mTOR(Ser 2448), phospho-S6K (Ser 424)","[4]; GBM8401, 5 to 15 μM",down-regulated
same,formation of primary GBM spheroids,[5],inhibited
same,IC50,[6],< 10 µM
same,cell death,[6],dose-dependent increase in cell death
same,cell death,[7],dose-dependent increase in cell death
same,cell viability,[1]; 10 µM,22%
same,cell viability,[1]; [11],significantly reduced
same,cancer stem-like cells population (side population),[8],0.1%
same,autophagy in GBM cells,[9],induce autophagye
same,ER stress: IRE1a and ER stress-associated proteins (Bip and CHOP),[9]; GBM cells,accumulation
same,cancer stem-like cells population (side population),[10],0.03%
fluphenazine,cell death,[6],dose-dependent increase in cell death
same,cell death,[7],dose-dependent increase in cell death
same,autophagy in GBM cells,[9],induce autophagye
prochlorperazine,cell viability,"[1]; U87MG sphere cells, 10 and 15 μM, 24 hr",significantly reduced
